This test has as its system mice. Kind of test: Neuropharmacological Assay (SmartCube): automated behavioral signature of compound-treated mice compared with a database of reference drug classes. Format: in vivo. The conditions noted are these: for minimal effective dose: Mus musculus, ip. A digest of the protocol:
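Dose-response work typically spanned 0.3–10 mpk, widened or narrowed to obtain a full curve, with i.p. administration 15 min pre-test. MED is defined as the dose producing ≥45% total SmartCube activity; single-dose entries list the tested dose.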

Where [1] appears, read: SmartCube class probability, 3.0 mg/kg i.p., 15 min before test.
The mark [2] stands for this setting: SmartCube class probability, 3.0 mg/kg i.p., 15 min before test, hydrochloride, 3 mg/kg.
Setting [3] is: minimal effective dose: dose having 45% or more total activity in SmartCube, i.p., if only one dose tested, that dose is shown.
Where [4] appears, read: dose having 45% or more total activity in SmartCube, i.p., if only one dose was tested, that dose is shown, read-out: MED (minimal effective dose).
Where [5] appears, read: probability that activity matches this class of agents, 3.0 mg/kg i.p., 15 min before test.
Setting [6] is: minimal effective dose: dose having 45% or more total activity in SmartCube, i.p., if only one dose tested, that dose is shown, read-out: MED.
Where [7] appears, read: minimal effective dose: dose having 45% or more total activity in SmartCube, i.p., if only one dose tested, that dose is shown, hydrochloride.
The mark [8] stands for this setting: minimal effective dose: dose having 45% or more total activity in SmartCube, i.p., if only one dose was tested, that dose is shown, read-out: MED.
Where [9] appears, read: SmartCube probability class, 3.0 mg/kg dose, i.p. 15 min before the behavioral test.
The mark [10] stands for this setting: SmartCube probability class, 3.0 mg/kg dose, i.p. 15 min before the behavioral test, hydrochloride, 3 mg/kg.

Each structure is given as a SMILES string. Where a name gives a salt, the structure may show the parent alone. Read-outs that look alike come from different tables or passages of the source. Some results are limits rather than exact numbers.

In the case of `CNC1(C)CCc2cc(C(F)(F)F)sc2C1.Cl` (single isomer, unassigned) [Compound 246, N, 6-dimethyl-2-(trifluoromethyl)-5,7-dihydro-4H-benzothiophen-6-amine hydrochloride], under setting [1], the AG result was “ND (^ <4%)”, the AN entry is “ND (^ <4%)”, the AX result was “ND (^ <4%)” and the CE entry is on record as “ND (^ <4%)”. Under setting [1], the HL result is recorded as “ND (^ <4%)”, the MS entry is reported as “ND (^ <4%)”, the PS result is “ND (^ <4%)” and the SH entry is listed as “ND (^ <4%)”. For the same compound, under setting [2], the AD entry is “+ (≥4%)”, the AP entry was “++ (≥24%)” and the UK result is “++ (≥24%)”. The compound further came in with an MED under setting [3] of 3 mpk.

Take `CNC1COc2csc(C(F)(F)F)c2C1` (single isomer, unassigned) [Compound 259, N-methyl-5-(trifluoromethyl)-3,4-dihydro-2H-thieno[3,4-b]pyran-3-amine hydrochloride]: under setting [1], the AD entry is “ND (^ <4%)”, the AG result is given as “ND (^ <4%)”, the AN entry is listed as “ND (^ <4%)” and the AP entry is “ND (^ <4%)”. Under setting [1], the AX result is given as “ND (^ <4%)”, the CE result is “ND (^ <4%)”, the HL result is reported as “ND (^ <4%)” and the MS result was “ND (^ <4%)”. In addition, under setting [1], the PS entry is listed as “ND (^ <4%)” and the SH entry is “ND (^ <4%)”. Moreover, under setting [2], the UK result is given as “++ (≥24%)”. Also, the MED under setting [3] was more than 3 mpk.

As to `CNC1CCc2c(F)sc(C)c2C1` (stereo not drawn) [Compound 100, 1-fluoro-N, 3-dimethyl-4,5,6,7-tetrahydro-2-benzothiophen-5-amine hydrochloride], the minimal effective dose under setting [4] worked out at 1 mg/kg. In addition, under setting [5], the AD entry is given as “ND (^ <4%)”, the AG result is “ND (^ <4%)”, the AN entry is reported as “ND (^ <4%)” and the AP result was “++++ (≥74%)”. Also, under setting [5], the AX result is reported as “ND (^ <4%)”, the CE entry is on record as “ND (^ <4%)”, the HL entry is “ND (^ <4%)” and the MS entry was “ND (^ <4%)”. Besides, under setting [5], the PS result was “ND (^ <4%)”, the SH entry was “ND (^ <4%)” and the UK entry is reported as “ND (^ <4%)”.

On to `CNC1CCc2scc(C3CCC3)c2C1` (single isomer, unassigned) [Compound 267, 3-cyclobutyl-N-methyl-4,5,6,7-tetrahydrobenzothiophen-5-amine hydrochloride], for which the minimal effective dose under setting [6] is more than 3 mg/kg. For the same compound, under setting [1], the AD entry is given as “ND (^ <4%)”, the AG result is given as “ND (^ <4%)”, the AN entry is “ND (^ <4%)” and the AP result is on record as “ND (^ <4%)”. Further, under setting [1], the AX entry was “ND (^ <4%)”, the CE entry is “ND (^ <4%)”, the HL entry was “ND (^ <4%)” and the MS entry is listed as “ND (^ <4%)”. Under setting [1], the PS entry is given as “ND (^ <4%)” and the SH result was “ND (^ <4%)”. Moreover, under setting [2], the UK result was “+ (≥4%)”.

As for `CNC1CCc2cc(F)sc2C1` (racemic) [Compound 79, 2-fluoro-N-methyl-4,5,6,7-tetrahydrobenzothiophen-6-amine hydrochloride], the minimal effective dose under setting [4] was 1 mg/kg. Moreover, under setting [5], the AD result is listed as “++ (≥24%)”, the AG result is “ND (^ <4%)”, the AN result is recorded as “ND (^ <4%)” and the AP entry is “+ (≥4%)”. Under setting [5], the AX entry is on record as “++ (≥24%)”, the CE result is on record as “ND (^ <4%)”, the HL entry is listed as “ND (^ <4%)” and the MS entry was “ND (^ <4%)”. Also, under setting [5], the PS entry is “ND (^ <4%)”, the SH result is reported as “ND (^ <4%)” and the UK entry is “ND (^ <4%)”.

As to `CNC1CC=Cc2ccsc2C1.Cl` (stereo not drawn) [Compound 24, N-methyl-7,8-dihydro-6H-cyclohepta[b]thiophen-7-amine hydrochloride], under setting [4], the minimal effective dose is 3 mg/kg. In addition, under setting [5], the AD entry is recorded as “ND (^ <4%)”, the AG result was “ND (^ <4%)”, the AN entry is given as “ND (^ <4%)” and the AP entry was “ND (^ <4%)”. Also, under setting [5], the AX result is “ND (^ <4%)”, the CE entry is on record as “ND (^ <4%)”, the HL result is given as “ND (^ <4%)” and the MS entry is listed as “ND (^ <4%)”. Moreover, under setting [5], the PS entry is listed as “ND (^ <4%)”, the SH result was “+++ (≥49%)” and the UK entry is “ND (^ <4%)”.

As to `NC1CCc2scc(C(F)(F)F)c2C1` (stereo not drawn) [Compound 186, 3-(trifluoromethyl)-4,5,6,7-tetrahydrobenzothiophen-5-amine hydrochloride], under setting [6], the minimal effective dose was more than 3 mg/kg. Under setting [1], the AD result is on record as “ND (^ <4%)”, the AG entry is “ND (^ <4%)”, the AN entry was “ND (^ <4%)” and the AP entry is recorded as “ND (^ <4%)”. Also, under setting [1], the AX result is on record as “ND (^ <4%)”, the CE result was “ND (^ <4%)”, the HL entry is reported as “ND (^ <4%)” and the MS result is reported as “ND (^ <4%)”. Besides, under setting [1], the PS entry was “ND (^ <4%)”, the SH result is “ND (^ <4%)” and the UK entry is listed as “+ (≥4%)”.

For the compound `CCNC1CCc2cscc2C1` (single isomer, unassigned) [Compound 172, N-ethyl-4,5,6,7-tetrahydro-2-benzothiophen-5-amine hydrochloride], under setting [1], the AD entry is given as “ND (^ <4%)”, the AG entry is recorded as “ND (^ <4%)”, the AN result was “ND (^ <4%)” and the CE result is “ND (^ <4%)”. Also, under setting [1], the HL result is given as “ND (^ <4%)”, the MS entry is on record as “ND (^ <4%)”, the PS result is given as “ND (^ <4%)” and the SH result is reported as “ND (^ <4%)”. The UK entry under setting [1] is recorded as “ND (^ <4%)”. Under setting [2], the AP entry is “ND (^ <4%)” and the AX entry is reported as “++++ (≥74%)”. Under setting [7], this compound returned an MED of 1 mpk.

In the case of `Cl.c1cc2c(s1)CC(N1CCOCC1)CC2` (single isomer, unassigned) [Compound 23, 4-(4,5,6,7-tetrahydrobenzo[b]thiophen-6-yl)morpholine hydrochloride], the “MED (minimal effective dose)” value (dose having 45% or more total activity in SmartCube, i.p., if only one dose was tested, that dose is shown) is more than 10 mpk. Besides, under setting [5], the AD entry is “ND (^ <4%)”, the AG entry is on record as “ND (^ <4%)”, the AN entry was “ND (^ <4%)” and the AP result was “ND (^ <4%)”. Moreover, under setting [5], the AX result is listed as “ND (^ <4%)”, the CE entry is on record as “ND (^ <4%)”, the HL result is “ND (^ <4%)” and the MS entry is “ND (^ <4%)”. Besides, under setting [5], the PS entry was “ND (^ <4%)” and the SH result was “ND (^ <4%)”. The UK entry (probability that activity matches this class of agents, 3.0 mg/kg i.p., 15 min before test, hydrochloride, 3 mg/kg) was “ND (^ <4%)”.

Take `CCc1csc2c1CC(N)CC2` (single isomer, unassigned) [Compound 279, 3-ethyl-4,5,6,7-tetrahydrobenzothiophen-5-amine hydrochloride]: the minimal effective dose under setting [8] stood at 3 mg/kg. Under setting [9], the AD result is “ND (^ <4%)”, the AG entry is “ND (^ <4%)”, the AN entry is reported as “ND (^ <4%)” and the AP result was “ND (^ <4%)”. Further, under setting [9], the AX entry is “ND (^ <4%)”, the CE entry is “ND (^ <4%)”, the HL result is given as “ND (^ <4%)” and the MS entry is “ND (^ <4%)”. Moreover, under setting [9], the PS result is “ND (^ <4%)” and the SH result is “ND (^ <4%)”. Under setting [10], the UK result was “++ (≥24%)”.

With `CCNC1CCc2cscc2C1` (single isomer, unassigned) [Compound 171, N-ethyl-4,5,6,7-tetrahydro-2-benzothiophen-5-amine hydrochloride], under setting [1], the AD entry is “ND (^ <4%)”, the AG entry is “ND (^ <4%)”, the AN result is recorded as “ND (^ <4%)” and the CE entry was “ND (^ <4%)”. In addition, under setting [1], the HL result was “ND (^ <4%)”, the MS result is reported as “ND (^ <4%)”, the PS result was “ND (^ <4%)” and the SH result is “ND (^ <4%)”. The UK result under setting [1] is reported as “ND (^ <4%)”. In addition, under setting [2], the AP result is reported as “++++ (≥74%)” and the AX result is reported as “ND (^ <4%)”. Further, the MED under setting [7] worked out at 3 mpk.

In the case of `CNC1Cc2scc(C(F)(F)F)c2C1` (single isomer, unassigned) [Compound 314, N-methyl-3-(trifluoromethyl)-5,6-dihydro-4H-cyclopenta[b]thiophen-5-amine hydrochloride], the minimal effective dose under setting [8] was more than 3 mg/kg. Also, under setting [9], the AD result is recorded as “ND (^ <4%)”, the AG result is recorded as “ND (^ <4%)”, the AN entry is on record as “ND (^ <4%)” and the CE result is “ND (^ <4%)”. In addition, under setting [9], the HL entry is recorded as “ND (^ <4%)”, the MS result is listed as “ND (^ <4%)”, the PS entry is given as “ND (^ <4%)” and the SH result is “ND (^ <4%)”. Moreover, under setting [10], the AP entry is given as “ND (^ <4%)”, the AX entry was “ND (^ <4%)” and the UK result was “+ (≥4%)”.

Source of the values: US20260274814A1, “THIENYL COMPOUNDS FOR THE TREATMENT OF A CENTRAL NERVOUS SYSTEM DISEASE OR DISORDER” (Coreterra Therapeutics, Inc., priority 2023, published 2026).
